The source of these data is patent US20220389515A1, “USE OF BIOMARKERS TO PREDICT CLINICAL SENSITIVITY TO 2-(4-CHLOROPHENYL)-N-((2-(2,6-DIOXOPIPERIDIN-3-YL)-1-OXOISOINDOLIN-5-YL)METHYL)-2,2-DIFLUOROACETAMIDE” (priority 2019, published 2022).

The target in test [1] is T1, HA-tagged GSPT1 and endogenous cereblon (Homo sapiens, UniProt P15170+Q96SW2).
T1 construct: expressed in transfected cells; host or cells: U937-Cas9 cells stably expressing HA-tagged GSPT1 (cereblon endogenous); cells treated with MLN4924 and Compound D, anti-HA immunoprecipitation
T1 sequence (P15170 1-637 isoform P15170-3): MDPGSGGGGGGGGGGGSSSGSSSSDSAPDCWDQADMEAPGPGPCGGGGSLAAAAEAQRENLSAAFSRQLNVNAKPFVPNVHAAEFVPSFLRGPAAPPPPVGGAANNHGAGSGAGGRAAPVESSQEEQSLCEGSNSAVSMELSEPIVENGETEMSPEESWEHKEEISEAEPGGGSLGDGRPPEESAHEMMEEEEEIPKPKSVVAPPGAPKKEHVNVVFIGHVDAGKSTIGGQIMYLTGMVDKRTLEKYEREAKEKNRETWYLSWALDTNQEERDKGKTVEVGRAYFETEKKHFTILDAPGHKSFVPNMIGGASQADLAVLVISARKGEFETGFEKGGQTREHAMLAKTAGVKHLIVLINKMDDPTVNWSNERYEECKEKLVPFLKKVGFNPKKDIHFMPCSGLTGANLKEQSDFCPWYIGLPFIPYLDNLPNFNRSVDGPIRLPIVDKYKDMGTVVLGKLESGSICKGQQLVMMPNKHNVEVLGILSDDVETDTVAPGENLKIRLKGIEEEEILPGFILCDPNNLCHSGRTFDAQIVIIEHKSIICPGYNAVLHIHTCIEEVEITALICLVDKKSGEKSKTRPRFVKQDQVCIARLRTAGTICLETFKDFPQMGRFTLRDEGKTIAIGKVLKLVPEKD
T1 sequence (Q96SW2 whole entry): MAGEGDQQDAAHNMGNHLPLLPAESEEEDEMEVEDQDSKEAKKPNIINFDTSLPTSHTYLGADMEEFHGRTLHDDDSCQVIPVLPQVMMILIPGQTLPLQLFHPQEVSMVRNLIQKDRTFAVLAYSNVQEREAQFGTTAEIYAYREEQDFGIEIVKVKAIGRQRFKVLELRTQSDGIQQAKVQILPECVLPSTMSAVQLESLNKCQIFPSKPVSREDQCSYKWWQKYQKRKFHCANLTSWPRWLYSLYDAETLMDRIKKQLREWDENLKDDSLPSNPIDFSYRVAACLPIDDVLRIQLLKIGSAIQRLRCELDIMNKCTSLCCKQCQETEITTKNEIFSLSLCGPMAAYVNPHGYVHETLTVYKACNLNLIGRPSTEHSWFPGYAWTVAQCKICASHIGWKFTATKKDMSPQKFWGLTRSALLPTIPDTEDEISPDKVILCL
T1 sequence (Q16531 whole entry partner): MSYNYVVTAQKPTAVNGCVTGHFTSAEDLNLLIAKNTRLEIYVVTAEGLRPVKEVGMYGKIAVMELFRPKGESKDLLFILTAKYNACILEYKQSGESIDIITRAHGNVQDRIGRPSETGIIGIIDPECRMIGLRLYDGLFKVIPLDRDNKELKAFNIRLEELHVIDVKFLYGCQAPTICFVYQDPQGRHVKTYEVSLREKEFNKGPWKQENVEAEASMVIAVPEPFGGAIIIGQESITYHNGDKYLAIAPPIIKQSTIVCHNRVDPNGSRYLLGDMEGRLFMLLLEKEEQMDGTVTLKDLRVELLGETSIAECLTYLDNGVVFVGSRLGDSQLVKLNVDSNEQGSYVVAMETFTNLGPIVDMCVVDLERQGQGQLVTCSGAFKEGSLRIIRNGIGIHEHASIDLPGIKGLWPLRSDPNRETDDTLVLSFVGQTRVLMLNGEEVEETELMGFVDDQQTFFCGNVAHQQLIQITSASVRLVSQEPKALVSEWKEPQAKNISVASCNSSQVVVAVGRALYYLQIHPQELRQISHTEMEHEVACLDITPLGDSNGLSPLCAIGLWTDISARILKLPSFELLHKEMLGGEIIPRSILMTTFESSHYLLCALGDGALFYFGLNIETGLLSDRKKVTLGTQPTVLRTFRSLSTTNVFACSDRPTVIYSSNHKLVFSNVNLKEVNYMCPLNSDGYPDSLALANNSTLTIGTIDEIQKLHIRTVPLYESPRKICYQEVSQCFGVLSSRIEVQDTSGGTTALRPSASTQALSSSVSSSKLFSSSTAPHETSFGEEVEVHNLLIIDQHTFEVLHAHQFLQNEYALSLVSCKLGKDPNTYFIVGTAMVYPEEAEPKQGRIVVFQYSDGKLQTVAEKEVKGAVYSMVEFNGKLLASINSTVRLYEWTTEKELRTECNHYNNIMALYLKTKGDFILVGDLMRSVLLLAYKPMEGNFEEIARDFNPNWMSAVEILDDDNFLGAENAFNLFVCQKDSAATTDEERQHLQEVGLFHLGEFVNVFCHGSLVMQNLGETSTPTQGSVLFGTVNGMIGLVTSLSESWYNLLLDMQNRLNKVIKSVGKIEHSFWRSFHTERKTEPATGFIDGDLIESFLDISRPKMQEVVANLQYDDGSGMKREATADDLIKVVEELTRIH
Kind of test: Anti-HA immunoprecipitation of HA-tagged GSPT1 with endogenous cereblon in U937-Cas9 cells. Conditions: with MLN4924. It is filed as cell-based.

Test [2] has as its system ATF4 target genes ATF3, CHOP and DDIT4. Kind of test: Quantitative RT-PCR of ATF4 target genes. In kind it is cell-based, human. As for the experimental part: (§1) The U937 GCN2−/− cell line is derived from a single clone of U937 parental cells stably infected with a lentiviral CRISPR vector targeting GCN2. […] Cells were incubated with DMSO or 200 nM Compound D and lysed at the indicated time points. Arrows pointing to bands in the blot on the right designate the cleaved forms of caspase-3. […] The U937 GCN2−/− cell line is derived from a single clone of U937 parental cells stably infected with a lentiviral CRISPR vector targeting GCN2. […] Cells were treated with DMSO or Compound D for 24 hours. On day 3 after Compound D treatment, cell proliferation was assessed by CTG. Result shown in all figure panels is representative of at least three biological replicates. Data in FIGS. 13C, 13D and 13E are shown as mean±SD, n=3 technical replicates.
Specifically, following incubation with DMSO or Compound D, cells were collected via centrifugation at 2000 rpm for 2 minutes. Cell pellets were then washed once in ice-cold PBS and snap-frozen in liquid nitrogen. […] The cDNA transcripts of GADPH, DDIT3 (CHOP), DDIT4 (REDD), and ATF3 were quantified by the ViiA™ 7 Real-Time PCR System using TaqMan Gene Expression Assay probes (Invitrogen). The cDNA level of various CRBN transcripts was quantified using RT^2 SYBR Green qPCR Mastermixes (Qiagen). […]

A further test concerns GCN2-mediated ISR. Kind of test: Immunoblot analysis of integrated stress response and apoptosis markers. It is filed as cell-based, human. As for the experimental part:
as §1
To determine if the activation of the ISR by Compound D is solely mediated by GCN2, the effect of GCN2 ablation on Compound D response was evaluated.

The next test deals with AML cell lines. Kind of test: Cell proliferation assay (CTG) in AML cell lines, 72 hours. In kind it is cell-based, human. The note with it: 11 AML cell lines, Day 3.
A further test has as its system U937 Cas9 cell lines. Kind of test: Cell proliferation assay (CTG, 5 days) in U937 cells after RNP electroporation knockout. In kind it is cell-based, human. The source says: Next, the roles of additional negative regulators of mTOR were studied. To knockout the studied genes, an electroporation-based method was used where a ribonucleoprotein (RNP) consisting of the Cas9 protein and gene-targeting gRNA was directly delivered to the U937 cells. A crRNA-tracrRNA duplex was first prepared consisting of the crRNA with a 20 nt sequence specific to each target gene and the universal tracrRNA to guide the Cas9 nuclease to the genomic locus. The sgRNA sequences targeting CRBN, ATF4, GCN1, GCN2, DDIT4, TSC1, TSC2, or non-targeting (NT-1) and non-coding (NC-8) controls were selected from the Cellecta sgRNA library. After pre-coupling the Cas9 enzyme to the crRNA-tracrRNA duplex, the complex was mixed with one million U937 cells per sample in nucleofection solution (4D-Nucleofector X kit SE; Lonza). Cells were electroporated in a 4D nucleofector according to the manufacturer's instructions and plated into complete cell culture media.
Then a cell proliferation assay was performed. Compound D dissolved in DMSO was injected into 96-well cell culture plates using a HP D300 digital dispenser in triplicate for each final Compound D concentration. […] After 5 days, cell proliferation was assessed using CTG (CellTiter-Glo) according to the manufacturer's instructions to assess the effects of Compound D on proliferation of each cell line.

Test [3] relates to U937 Cas9 cell lines and OCI-AML2 Cas9 cell lines. Kind of test: Cell proliferation assay (CTG, 5 days) in sgRNA knockout Cas9 lines. It is filed as cell-based, human. As for the experimental part:
Then, a cell proliferation assay was performed. Compound D dissolved in DMSO was injected into 96-well cell culture plates using a HP D300 digital dispenser in triplicate Compound D concentrations. One week after infection to knock-out the indicated genes, each of U937 Cas9 cell lines and OCI-AML2 Cas9 cell lines were plated in triplicate with 5000 cells in 100 μL complete culture media per well in the 96-well plates. After 5 days, cell proliferation was assessed using CTG (CellTiter-Glo) according to the manufacturer's instructions to assess the effects of Compound D on proliferation of each cell line.

Method for AML cell lines: On Day 3, cell proliferation was assessed by the Cell-Titer Glo (CTG) assay.
For cell proliferation assays, human cancer cell lines cultured in the growth medium recommended by the vendor (as described above) were seeded into black 384-well plates containing DMSO or test compounds. The seeding density of each cell line was optimized to allow for cell growth in the linear growth phase during a 3-day culture period. To test the compounds' effect on cell proliferation in AML cell lines, 5,000 to 10,000 cells per well in 200 L complete culture media were seeded into black 96-well plates containing DMSO or test compounds. After 72 hours, cell proliferation was assessed using the CTG assay according to the manufacturer's instructions. […] Relative cell proliferation was normalized against cell growth values on day 4. The growth inhibitory curve was processed and graphed using GraphPad Prism Version 7 (P<0.05, unpaired two-sided t-test, is considered as significant).

Turning to `O=C1CCC(N2Cc3cc(CNC(=O)C(F)(F)c4ccc(Cl)cc4)ccc3C2=O)C(=O)N1` (centres unmarked) [Compound D, 2-(4-chlorophenyl)-N-((2-(2,6-dioxopiperidin-3-yl)-1-oxoisoindolin-5-yl)methyl)-2,2-difluoroacetamide], the “Compound D-induced interaction of HA-tagged GSPT1 with endogenous cereblon after TSC1 loss” value in test [1] is “significantly reduced the interaction between HA-tagged GSPT1 and endogenous cereblon induced by Compound D”. Moreover, in test [2] (U937 24 hours, KG-1 200 nM for 2, 4 or 6 hours), the “mRNA level of ATF4 target genes” value is “marked induction of ATF4 target genes ATF3, CHOP and DDIT4 at the mRNA level”. The “induction of ATF3 and CHOP after GCN2 loss” value in test [2] (U937 GCN2-/-, 24 hours) is “largely, but not completely, blocked the induction of other ATF4 target genes ATF3 and CHOP”. The “activation of the ISR (eIF2a phosphorylation, ATF4 and targets)” value with GCN2-mediated ISR (U937 24 hours, KG-1 200 nM) is “triggered the rapid phosphorylation of eIF2a, accumulation of ATF4 and its transcriptional targets DDIT4, CHOP and ATF3”. Moreover, in the test with GCN2-mediated ISR (U937, KG-1 200 nM), the “apoptosis (cleaved caspase-3)” value was “subsequent induction of apoptosis”. In addition, the “ISR activation and caspase-3 cleavage after GCN2 knockout” value in the test on GCN2-mediated ISR (U937 GCN2-/-, 24 hours) is “inhibited the phosphorylation of eIF2a, induction of ATF4 and its target gene DDIT4, and the cleavage of caspase-3”. Moreover, the anti-proliferative activity entry with AML cell lines is listed as “potent anti-proliferative activity in 10 out of 11 AML cell lines”. In the test on U937 Cas9 cell lines (U937), the “anti-proliferative effects after depletion of GCN2, ATF4, GCN1, CRBN, DDIT4, TSC1, TSC2” value is listed as “diminished this effect”. Further, the “anti-proliferative effects in control cells” value is “dose-dependent anti-proliferative effects” in the test on U937 Cas9 cell lines (U937 parental and non-coding (NC-8) controls); “dose-dependent anti-proliferative effects” in test [3] (parental, sgNT-1 and sgNC-8 controls). Besides, the “anti-proliferative effects after depletion of TSC1 and TSC2” value in test [3] (U937) is “diminished this effect”.
